The subject of test [1] is Human Corneal Epithelial (HCE) cells. Put plainly: Benzalkonium chloride cell damage model in HCE cells (trypan blue cell count). In kind it is cell-based. The settings on record: HCE cells damaged with 0.0005% benzalkonium chloride for 24 hours, then 0.4, 2, 10 μg/ml compound for 48 hours. As for the experimental part: Benzalkonium Chloride Cell Damage Model
The Human Corneal Epithelial (HCE) cells were seeded on a 6-well plate 5×10^5 cells with 10% FCS in DMEM/F12 for 24 hours. After cell attachment, medium was removed and changed into 0.0005% Benzalkonium chloride for 24 hours, then washed with PBS and treat with different concentrations 0.4, 2, 10 μg/ml of compound of Formula (I) (compound A) for 48 hours. At the end the cells were trypsinized and centrifuge 1000 rpm for 5 minutes, the supernatant was removed, added 1 ml of DMEM/F12 medium to resuspend the cells, followed by 0.4% trypan blue and the cell culture medium were 1:3 dilution, the number of cells were calculate under a microscope to observe the survivability of different concentrations treatment. The results are shown in FIG. 1. *P<0.05, **P<0.01 compared to the 0 μg/ml compound A group, Student's t-test. Data are expressed as mean±SD (n=3).

For test [2], the system named is BAC induced dry eye mice. The experiment in a line: Benzalkonium chloride induced dry eye mice model (1), phenol red thread tear test. The test is classed as in vivo, Male BALB/c mice. The settings on record: 0.3% BAC day 1 to 7; eye drops 2, 5 or 10 μg/ml three times a day, day 8 to 19; topical, right eye. How it is done:
Benzalkonium Chloride Induced Dry Eye Mice Model (1)
Male BALB/c mice (6 weeks) was treated with thrice-daily (9:00, 13:30, 18:00) topical administration of 5 ul of 0.3% BAC in right eyes, mice was treated with PBS as control group, from day 1 to 7. And compound A (2, 5, 10 μg/ml) was treated with thrice-daily (9:00, 13:30, 18:00) topical administration of 5 ul in right eyes, and PBS as control group, from day 8 to 19.
Phenol red thread tear test was used. The thread is yellow (acidic) and when it comes in contact with tears it changes to a light red color. Forceps were used to insert folded portion of the thread into the palpebral conjunctiva of the eye ⅓ of the distance from the lateral canthus of the lower eye lid. After 15 s, the thread was removed and the entire wet (Red) portion was measured. The phenol red thread test was on 7, 11, 15, 19 day. The results are shown in FIG. 2. *P<0.05, **P<0.01 compared to the control, Student's t-test. Data are expressed as mean±SD (n=5-6).

In test [3] the test system is BAC induced dry eye mice. Put plainly: Benzalkonium chloride induced dry eye mice model (2), phenol red thread tear test. The test is classed as in vivo, Male BALB/c mice. The conditions noted are these: 0.3% BAC day 1 to 7; eye drops 5, 10 μg/ml thrice-daily, day 15 to 19; topical, right eye. How it is done:
Benzalkonium Chloride Induced Dry Eye Mice Model (2)
Male BALB/c mice (9 weeks) was treated with thrice-daily (9:00, 13:30, 18:00) topical administration of 5 ul of 0.3% BAC in right eyes, mice was treated with PBS as control group, from day 1 to 7. And compound A (5, 10 μg/ml) was treated with thrice-daily (9:00, 13:30, 18:00) topical administration of 5 ul in right eyes, and PBS as control group, from day 15 to 19.
Phenol red thread tear test was used. The thread is yellow (acidic) and when it comes in contact with tears it changes to a light red color. Forceps were used to insert folded portion of the thread into the palpebral conjunctiva of the eye ⅓ of the distance from the lateral canthus of the lower eye lid. After 15 s, the thread was removed and the entire wet (Red) portion was measured. The phenol red thread test was on 14, 18, 20 day. The results are shown in FIG. 3. *P<0.05, **P<0.01 compared to the control, Student's t-test. Data are expressed as mean±SD (n=5-6).

The next test concerns NGF. Put plainly: Tear NGF protein expression in BAC induced dry eye mice (western blot). In kind it is in vivo. The settings on record: tear of BAC induced dry eye mice; eye drops 2, 5 or 10 μg/ml three times a day for 10 days. How it is done:
Tear was collected from right eye of BAC induced dry eye mice by 10 μl PBS wash. Mice treated eyes drop of PBS as control and different concentration Compound A for 10 days. NGF protein was a positive control. 5 μl tear volume used in western blot.
The total protein concentration was determined by 1×Braford assay. To denature, use a loading buffer(7 ml 0.5M Tris pH6.8, 3 ml Glycerol, 1 g 10% SDS, 0.93 g DTT, […] 0.05% bromophenol blue, 10 ml), and boil the mixture at 95-100° C. for 5 minutes. Total protein was loaded 20-40 μg per mini-gel (12% SDS-polyacrylamide gel) well for electrophoresis. Then transfer the proteins into polyvinylidene difluoride membrane and blocking the membrane with 5-10% nonfat dried milk in TTBS. The membrane was incubated with the primary antibody overnight at 4° C. by shaking. Wash the membrane several times in TTBS to remove residual primary antibody. And the membrane was incubated with secondary antibody for 2 hours at room temperature.
The protein levels were determined by chemiluminescene detection system and analysis by Imagequant software. The results are shown in FIG. 4. *P<0.05, **P<0.01, ***P<0.001 compared to the control, Student's t-test. Data are expressed as mean±SD (n=4).

Regarding `OC[C@H]1O[C@@H](Oc2c(O)cc(O)cc2/C=C/c2ccc(O)cc2)[C@H](O)[C@@H](O)[C@@H]1O` [compound of Formula (I), 2,3,5,4′-tetrahydroxystilbene 2-O-β-D-glucopyranoside], the “cell viability after BAC damage” value in test [1] is on record as “increased cell viability”. In addition, the tear secretion entry with BAC induced dry eye mice [2] is “restored tear secretion”; in the test with BAC induced dry eye mice [3], “improves tear secretion”. The NGF expression level result in the test on NGF is “increased the NGF gene expression level”.
